The assay concerns the target T1, human PD-1 / PD-L1-Ig binding on Jurkat cell line over-expressing human PD-1 (Jurkat-PD-1) (Homo sapiens, UniProt Q15116).
T1 construct: expressed in transfected cells; host or cells: Jurkat
Put plainly: Jurkat-PD-1 Cell Binding High-Content Screening Assay (CBA). It is filed as cell-based. As to conditions: PE-labeled PD-L1-Ig 20 nM final. The method in brief:
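Jurkat cells over-expressing human PD-1, in DMEM/10% FCS, pre-incubated with compound 2 h at 37° C. PE-labeled human PD-L1-Ig (20 nM final) added for 1 h; cells fixed in paraformaldehyde with Hoechst 33342 nuclear stain, washed, and bound fluorescence quantified by high-content imaging.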

Where [1] appears, read: Jurkat-PD-1 cells, read-out: Jurkat HPD1_PDL1 IC50.

Where two headings read alike, the source gives them in different places. Where a SMILES comes first, the peptide text is derived from it. Bridges are numbered along the chain shown (N, C = ends). [ ]: non-standard residue; d: D form. The star is where a group is joined. Phe(3-CF3) = N[C@@H](Cc1cccc(C(F)(F)F)c1)C(=O)O; Ala(morpholin-4-yl) = N[C@@H](CN1CCOCC1)C(=O)O; Phe(4-COOH) = N[C@@H](Cc1ccc(C(=O)O)cc1)C(=O)O; Bip = N[C@@H](Cc1ccc(-c2ccccc2)cc1)C(=O)O; Phe(3-Me) = Cc1cccc(C[C@H](N)C(=O)O)c1; 4Pal = N[C@@H](Cc1ccncc1)C(=O)O; Cha = N[C@@H](CC1CCCCC1)C(=O)O; Cit = NC(=O)NCCC[C@H](N)C(=O)O; Chg = N[C@H](C(=O)O)C1CCCCC1; Carboxymethyl = O=C(O)C*; Orn = NCCC[C@H](N)C(=O)O; Dab = NCC[C@H](N)C(=O)O; Dap = NC[C@H](N)C(=O)O

T1 sequence (Q15116 25-288): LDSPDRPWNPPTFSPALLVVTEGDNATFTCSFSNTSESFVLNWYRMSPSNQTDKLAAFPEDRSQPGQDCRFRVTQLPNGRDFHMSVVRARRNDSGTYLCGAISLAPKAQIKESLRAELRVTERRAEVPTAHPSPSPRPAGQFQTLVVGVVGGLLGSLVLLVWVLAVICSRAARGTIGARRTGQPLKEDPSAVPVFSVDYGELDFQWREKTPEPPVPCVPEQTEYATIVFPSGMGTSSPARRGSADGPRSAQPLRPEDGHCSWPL

Regarding `CC(C)C[C@H]1NC(=O)[C@H](CCCN)NC(=O)[C@H](Cc2ccc(OCC(=O)O)cc2)NC(=O)[C@H](Cc2ccc(-c3ccccc3)cc2)NC(=O)[C@H](Cc2ccc(C(=O)O)cc2)NC(=O)[C@H](Cc2cccc(C(F)(F)F)c2)NC(=O)[C@H](CC(N)=O)NC(=O)[C@H](Cc2ccc(OCC(=O)O)cc2)NC(=O)[C@H](CN2CCOCC2)NC(=O)CSC[C@@H](C(=O)N[C@@H](CCN)C(N)=O)NC(=O)[C@H](CO)NC(=O)[C@H](C(C)C)NC(=O)[C@H](CC2CCCCC2)NC(=O)[C@H](CCN)NC1=O` [Example 2724] ({CH2CO}-[Ala(morpholin-4-yl)]Y(Carboxymethyl)N[Phe(3-CF3)][Phe(4-COOH)][Bip]Y(Carboxymethyl)[Orn][dL][Dab][Cha]VSC[Dab]-NH2; thioether N-14), the IC50 under setting [1] was determined as 0.0353 µM.
For the molecule `CC(C)C[C@H]1NC(=O)[C@H](CCCN)NC(=O)[C@H](CCCCN)NC(=O)[C@H](Cc2ccc(-c3ccccc3)cc2)NC(=O)[C@H](C(C)C)NC(=O)[C@H](Cc2c[nH]c3ccccc23)NC(=O)[C@H](CC(=O)O)NC(=O)[C@H](Cc2ccncc2)NC(=O)[C@H](CN)NC(=O)CSC[C@@H](C(=O)N[C@@H](CCCN)C(N)=O)NC(=O)[C@H]([C@@H](C)O)NC(=O)[C@H](C(C)C)NC(=O)[C@H](CC2CCCCC2)NC(=O)[C@H](CCN)NC1=O` [Compound 2250] ({CH2CO}-[Dap][4Pal]DWV[Bip]K[Orn][dL][Dab][Cha]VTC[Orn]-NH2; thioether N-14), the half-inhibitory concentration (IC50) under setting [1] was determined as 0.0438 µM.
Take `CC(C)C[C@H]1NC(=O)[C@H](CCCN)NC(=O)[C@H](C(C)C)NC(=O)[C@H](Cc2ccc(-c3ccccc3)cc2)NC(=O)[C@H](C2CCCCC2)NC(=O)[C@H](Cc2c[nH]c3ccccc23)NC(=O)[C@H](CC(=O)O)NC(=O)[C@H](Cc2ccc(OCC(=O)O)cc2)NC(=O)[C@H](CN)NC(=O)CSC[C@@H](C(=O)N[C@@H](C)C(N)=O)NC(=O)[C@H]([C@@H](C)O)NC(=O)[C@H](C(C)C)NC(=O)[C@H](CC2CCCCC2)NC(=O)[C@H](CCN)NC1=O` [Compound 1730] ({CH2CO}-[Dap]Y(Carboxymethyl)DW[Chg][Bip]V[Orn][dL][Dab][Cha]VTCA-NH2; thioether N-14): the IC50 (Jurkat HPD1_PDL1 IC50, Jurkat-PD-1 cells) amounted to 0.0324 µM.
As for `CC(C)[C@@H]1NC(=O)[C@H](Cc2c[nH]c3ccccc23)NC(=O)[C@H](CC(=O)O)NC(=O)[C@H](Cc2ccc(C(=O)O)cc2)NC(=O)[C@H](Cc2ccc(OCC(=O)O)cc2)NC(=O)CSC[C@@H](C(=O)N[C@@H](C)C(N)=O)NC(=O)[C@H]([C@@H](C)O)NC(=O)[C@H](C(C)C)NC(=O)[C@H](CC2CCCCC2)NC(=O)[C@H](CCN)NC(=O)[C@@H](Cc2ccccc2)NC(=O)[C@H](CCCN)NC(=O)[C@H](CCC(=O)O)NC(=O)[C@H](Cc2ccc(-c3ccccc3)cc2)NC1=O` [Compound 1438] ({CH2CO}-Y(Carboxymethyl)[Phe(4-COOH)]DWV[Bip]E[Orn][dF][Dab][Cha]VTCA-NH2; thioether N-14), under setting [1], the IC50 was found to be 0.0304 µM.
Turning to `Cc1cccc(C[C@@H]2NC(=O)[C@H](CC(=O)O)NC(=O)[C@H](Cc3ccc(C(=O)O)cc3)NC(=O)[C@H](Cc3ccncc3)NC(=O)CSC[C@@H](C(=O)N[C@@H](C)C(N)=O)NC(=O)[C@H]([C@@H](C)O)NC(=O)[C@H](C(C)C)NC(=O)[C@H](CC(C)C)NC(=O)[C@H](CCN)NC(=O)[C@@H](CC(C)C)NC(=O)[C@H](CCCN)NC(=O)[C@H](CCCNC(N)=O)NC(=O)[C@H](Cc3ccc(-c4ccccc4)cc3)NC(=O)[C@H](C(C)C)NC2=O)c1` [Compound 1178] ({CH2CO}-[4Pal][Phe(4-COOH)]D[Phe(3-Me)]V[Bip][Cit][Orn][dL][Dab]LVTCA-NH2; thioether N-14), the IC50 under setting [1] amounted to 0.0041 µM.

The term IC50 denotes the concentration that inhibits the measured activity by half.

These data come from patent US20250163104A1, “MACROCYCLIC IMMUNOMODULATORS” (priority 2021, published 2025).
